From PMC9820303, “^αN-Acetyl β-Endorphin Is an Endogenous Ligand of σ1Rs That Regulates Mu-Opioid Receptor Signaling by Exchanging G Proteins for σ2Rs in σ1R Oligomers” (International Journal of Molecular Sciences, 2022)

Molecular target: σ1R-σ2R (Mus musculus, UniProt O55242)
Test: In vitro σ1R-σ2R association of recombinant proteins (HaloLink-σ2R, Western blot)
Type: biochemical, murine
Design: The coding region of the full-length murine σ1R (AF004927); GST (N, cleaved yes); made in house; host or cells: E. coli BL21 (KRX)
Conditions: for effect on σ1R-σ2R association: increasing concentrations, 30 min RT, vs control without ligand; for effect on the disruption of σ1R-σ2R associations by β-End 1–31: fixed concentration of β-End 1–31 (or β-End 1–27), increasing competitor; for EC50 to disrupt σ1R-σ2R interactions (range in words): 50 mM Tris-HCl pH 7.4, 0.2% CHAPS, 2.5 mM CaCl2, 30 min RT, n = 3
Description: Figure 7 Effect of β-End 1–31, ^αN-acetyl β-End 1–31 and their N-terminal derivatives on σ1R-σ2R, σ1R-NR1 C1 and σ1R-BiP associations. Amino acid sequence of β-End 1–31 showing derivatives 1–26 and 1–27. (A) HaloLink-attached σ2Rs were incubated for 30 min at RT in the presence of σ1Rs (100 nM) in 300 μL of 50 mM Tris-HCl (pH 7.4), 0.2% CHAPS, and 2.5 mM CaCl2. After removing the unbound σ1R proteins, the effects of increasing the peptide concentrations on σ1R-σ2R associations were studied. At the end of the incubation, protein complexes bound to HaloLink-σ2R were obtained by centrifugation, washed three times, solubilized in 2× Laemmli buffer containing β-mercaptoethanol, resolved by SDS-PAGE, and analyzed by Western blotting (for more details, see Section 4). This protocol was also used to assess the effect of ligands on (B) σ1R-NR1 C1 and (C) σ1R-BiP associations. Data were compared to that of the control, which was obtained in the absence of ligands. (A–C) Data are the mean ± SD, n = 3. (D) The β-End 1–31 structural models were predicted by Novafold (DNASTAR Lasergene protein v.17, Inc., Madison, WI, USA). Ribbon model: The 3D structure, charge distribution and hydrophobicity map of β-End 1–31 are shown. Positive charges are shown in red and negative charges in blue. Polar surfaces are shown in yellow, and nonpolar surfaces are shown in orange. Linear model: the opioid (1–5) and flexible region (8–11) sequences are shown in green and orange, respectively, and the amphiphilic helix (15–25) is shown in pink.
The recombinant σ1R (100 nM) was incubated either with Haloprotein (negative control) or together with the immobilized σ2R, NR1 C0-C1-C2 or BiP proteins in 300 µL of a buffer containing 50 mM Tris-HCl (pH 7.4) and 0.2% CHAPS in the presence of 2.5 mM CaCl2 for 30 min at RT. After removal of the unbound σ1R, the agarose-attached complexes were incubated for 30 min with rotation at RT in the presence of increasing concentrations of the ligands in a final reaction volume of 300 µL [50 mM Tris-HCl (pH 7.4), 2.5 mM CaCl2 and 0.2% CHAPS]. Ligands were usually dissolved in aqueous solutions; however, when an organic solvent such as DMSO was required to incorporate, e.g., pregnenolone sulfate, the solvent remained below 1% in the assay buffer. Agarose pellets containing the bound proteins were obtained by centrifugation, washed and resuspended thrice in the presence of 2.5 mM CaCl2, solubilized in 2× Laemmli buffer plus β-mercaptoethanol, and analyzed by Western blotting.
Because all the assays were performed with recombinant proteins, the immune signals provided a single band of the expected size, which was used for the subsequent densitometry analysis. Accordingly, no other regions of the blots provided information and were routinely excluded from the analysis.
Figure S7. Effect of σ1R agonist/antagonist ligands on σ1R-σ2R heterodimers. (A-C) Agarose (Θ)- attached σ2Rs captured recombinant σ1Rs. After removing unbound σ1R proteins, the Θ-σ2R.σ1R complexes were incubated with a ﬁxed concentration of a selected L1 ligand (indicated in brackets) in the absence and presence of increasing concentrations of competing σ1R ligands as indicated. The σ1Rs that remained attached to the Θ-σ2Rs were evaluated by Western blotting. * Signiﬁcant differences with respect to the control group that was incubated without L1 ligands. ANOVA followed by the Holm-Sidak multiple comparisons test, p < 0.05. For details, see Methods and Figure 6A. Representative blots are […]
Figure S8. Effect of the physiological and nonphysiological sequences of β-End 1-31 and classical σ1R ligands on BiP-σ1R, σ2R-σ1R and NR1 C1-σ1R associations . Agarose-BiP was loaded with σ1Rs, and after the unbound σ1Rs were removed, the agarose-BiP-σ1R complexes were incubated in the absence (control) and presence of increasing concentrations of (A) β-End 1-31 C-terminal physiological derivatives and (B) classical σ1R ligands. C) Agarose-σ2R loaded with σ1Rs was incubated in the […]

σ1R-σ2R, sequence (O55242 whole entry): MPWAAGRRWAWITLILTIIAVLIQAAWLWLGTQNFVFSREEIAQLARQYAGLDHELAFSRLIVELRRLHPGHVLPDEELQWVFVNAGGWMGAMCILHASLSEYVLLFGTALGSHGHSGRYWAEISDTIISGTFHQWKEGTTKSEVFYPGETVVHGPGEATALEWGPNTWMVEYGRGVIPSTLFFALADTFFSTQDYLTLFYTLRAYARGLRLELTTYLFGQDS

Row | Molecule | effect on σ1R-σ2R association | also measured
1 | Br.Br.CN(C)CCN(C)CCc1ccc(Cl)c(Cl)c1 [BD1047, N′-[2-(3,4-dichlorophenyl)ethyl]-N,N,N′-trimethylethane-1,2-diamine;dihydrobromide, reference compound] | did the opposite | –
2 | COC(=O)[C@]1(c2ccc(C)cc2)C[C@@H]1CN1CCC(O)(c2ccccc2)CC1 [PPCC, (1R,2S/1S,2R)-2-[4-hydroxy-4-phenylpiperidin-1-yl)methyl]-1-(4-methylphenyl) cyclopropanecarboxylate, reference compound] | impaired σ1R associations with σ2R and BiP | –
3 | Cl.O=C(OCCN1CCOCC1)C1(c2ccccc2)CCCCC1 [PRE084, 2-(4-morpholinethyl)-1-phenylcyclohexanecarboxylate hydrochloride, reference compound] | impaired σ1R associations with σ2R and BiP | –
4 | Cc1cc(OCCN2CCOCC2)nn1-c1ccc2ccccc2c1 [S1RA] | did the opposite | –
5 | KKGE [β-End 28–31, C-terminal tetrapeptide of β-End 1–31] | promoted σ1R-σ2R associations | effect on the disruption of σ1R-σ2R associations by β-End 1–31: counteracted
6 | YKKGE [β-End 27–31, C-terminal pentapeptide of β-End 1–31] | reduced σ1R-σ2R | –
7 | ^αN-acetyl β-End 1–31: β-End 1–31 acetylated at N terminal Y1, α position | strengthened | affinity toward σ1R indicated by the potency to counteract the β-End 1–31 effect (competition with β-End 1–31 on σ1R-σ2R (Figure S7A)): fM range; effect on the disruption of σ1R-σ2R associations by β-End 1–31: antagonized
8 | β-End 1–26: β-End 1–31 derivative without 5 C-terminal residues (YGGFMTSEKSQTPLVTLFKNAIIKNA; Beta-endorphin; UniProt P01189 237-262, looked up, fragment) | – | EC50 to disrupt σ1R-σ2R interactions (range in words): low–medium nM range
9 | β-End 1–27: β-End 1–31 derivative without 4 C-terminal residues (YGGFMTSEKSQTPLVTLFKNAIIKNAY; Beta-endorphin; UniProt P01189 237-263, looked up, fragment) | – | EC50 to disrupt σ1R-σ2R interactions (range in words): low–medium nM range
10 | β-End 6–31: β-End 1–31 lacking the N-terminal met-enkephalin 1–5 sequence (TSEKSQTPLVTLFKNAIIKNAYKKGE; Beta-endorphin; UniProt P01189 242-267, looked up, fragment) | diminished σ1R-σ2R associations | –
11 | β-End 22–31: nonphysiological C-terminal sequence of β-End 1–31 (IIKNAYKKGE; Beta-endorphin; UniProt P01189 258-267, looked up, fragment) | promoted their association | –
